In PubChem BioAssay AID651885 (Broad Institute, 2012) one finds IC50, IC90 and IC99 data, which are given here for 51 compounds.

The test system of experiment [1] is BESM host cells (bovine embryo skeletal muscle), cytotoxicity. Nature of the experiment: T. cruzi intracellular amastigote growth inhibition, dose response, imaging, CA-I/72 strain, bovine embryo skeletal muscle, dry powder (AID 651885). To be noted: T. cruzi CA-I/72 amastigotes in BESM cells, imaging, 72 h; measured here: host BESM cell toxicity.
Experiment [2] relates to T. cruzi CA-I/72 amastigotes in BESM cells, imaging, 72 h. The description is as above. Particulars: for IC90: measured here: parasite IC90, test 4; for IC99: measured here: parasite IC99, test 4.

A word on the IC50: it is the concentration that gives 50% inhibition. A word on the IC90: it is the concentration at which the effect reaches the 90% level. What is called IC99 is the concentration at which the effect reaches the 99% level. A higher IC99 goes with a need for much substance.

As to `C[C@H]1CN([C@@H](C)CO)C(=O)c2cccc(NC(=O)c3ccncc3)c2O[C@@H]1CN(C)Cc1ccc(C(F)(F)F)cc1`, the IC50 in experiment [1] is > 20 µM.

As for `C[C@@H]1CN([C@@H](C)CO)C(=O)c2cccc(NC(=O)c3ccncc3)c2O[C@H]1CN(C)Cc1cccc(Cl)c1`, in experiment [1], the IC50 is > 20 µM.

Consider `CNC[C@@H]1Oc2c(NC(=O)c3ccncc3)cccc2C(=O)N(C(C)C)C[C@H]1C`, for which the IC50 in experiment [1] is > 20 µM.

Regarding `CNC[C@H]1Oc2c(NC(=O)c3ccccc3)cccc2C(=O)N(C(C)C)C[C@@H]1C`, the IC50 in experiment [1] was > 20 µM.

Consider `C[C@@H]1CN([C@@H](C)CO)C(=O)c2cc(-c3ccncc3)cnc2O[C@H]1CN(C)Cc1ccc(Oc2ccccc2)cc1`, for which, in experiment [1], the IC50 is 5 µM.

With `C[C@@H]1CN([C@@H](C)CO)C(=O)c2cccc(NC(=O)c3ccncc3)c2O[C@H]1CN(C)CC1CCCCC1`, in experiment [1], the IC50 is > 20 µM. In experiment [2], this compound registered an IC90 of 6.03 µM and an IC99 of 63.4 µM.

Turning to `C[C@@H]1CN([C@H](C)CO)C(=O)c2cccc(NC(=O)c3ccncc3)c2O[C@H]1CN(C)CC1CCCCC1`, in experiment [1], the IC50 is > 20 µM. In experiment [2], the IC90 was 28.5 µM and the IC99 was found to be 158 µM.

Compound `CC(C)N1C[C@H](C)[C@@H](CN(C)Cc2ccc(Oc3ccccc3)cc2)Oc2c(NC(=O)c3ccccc3)cccc2C1=O` gave an IC50 in experiment [1] of 16.1 µM.

For the compound `C[C@@H]1CN([C@H](C)CO)C(=O)c2cccc(NC(=O)c3ccncc3)c2O[C@@H]1CN(C)Cc1ccc(Oc2ccccc2)cc1`, the IC50 in experiment [1] is > 20 µM. In experiment [2], the IC90 was 30.7 µM and the IC99 came out at 238 µM.

For `COc1ccc(CN(C)C[C@@H]2Oc3c(NC(=O)c4ccncc4)cccc3C(=O)N([C@@H](C)CO)C[C@H]2C)cc1`, in experiment [1], the IC50 was > 20 µM. Besides, in experiment [2], the IC90 was 1.58 µM and the IC99 worked out at 15.9 µM.

Turning to `C[C@H](CO)N1C[C@H](C)[C@H](CN(C)Cc2ccc(Oc3ccccc3)cc2)Oc2c(NC(=O)c3ccncc3)cccc2C1=O`, in experiment [1], the IC50 is > 20 µM.

As to `CC(C)N1C[C@H](C)[C@@H](CN(C)C(=O)OC(C)(C)C)Oc2c(C#N)cccc2C1=O`, the IC50 in experiment [1] was > 20 µM.

Turning to `CCCn1ncc(CN2CCCC(C(=O)c3cccc(OC(C)C)c3)C2)c1C` (stereo not drawn), in experiment [1], the IC50 was > 20 µM.

In the case of `C[C@@H]1CN([C@H](C)CO)C(=O)c2cccc(NC(=O)c3ccncc3)c2O[C@H]1CN(C)Cc1ccc(Oc2ccccc2)cc1`, in experiment [1], the IC50 was > 20 µM. Further, in experiment [2], the IC90 turned out to be 0.45 µM and the IC99 came to 4.95 µM.

Turning to `C[C@@H]1CN([C@@H](C)CO)C(=O)c2cc(-c3cccnc3)cnc2O[C@H]1CN(C)Cc1ccc(Oc2ccccc2)cc1`, in experiment [1], the IC50 is > 20 µM.

Take `CC(C)N1C[C@H](C)[C@@H](CN(C)C(=O)OC(C)(C)C)Oc2c(NC(=O)c3ccncc3)cccc2C1=O`: in experiment [1], the IC50 is > 20 µM.

`CC(C)N1C[C@H](C)[C@@H](CN(C)C(=O)OC(C)(C)C)Oc2c(NC(=O)c3ccccc3)cccc2C1=O`: in experiment [1], the IC50 was > 20 µM.

In the case of `C[C@@H]1CN([C@@H](C)CO)C(=O)c2cccc(NC(=O)c3ccncc3)c2O[C@H]1CN(C)C`, in experiment [1], the IC50 was > 20 µM.

Compound `COc1ccc(CN(C)C[C@H]2Oc3c(NC(=O)c4ccncc4)cccc3C(=O)N([C@@H](C)CO)C[C@@H]2C)cc1` gave an IC50 in experiment [1] of 15.3 µM.

Consider `C[C@H](CO)N1C[C@H](C)[C@@H](CN(C)Cc2ccc(Oc3ccccc3)cc2)Oc2c(NC(=O)c3ccncc3)cccc2C1=O`, for which the IC50 in experiment [1] was > 20 µM.

For the compound `C[C@H]1CN([C@@H](C)CO)C(=O)c2cccc(NC(=O)c3ccncc3)c2O[C@H]1CN(C)Cc1ccc(Oc2ccccc2)cc1`, in experiment [1], the IC50 was > 20 µM.

Regarding `COc1ccc(CCN(C)C(=O)C2CCCN(Cc3ccc(OC)c(OC)c3)C2)cc1OC` (stereo not drawn), the IC50 in experiment [1] is > 20 µM.

For the compound `CC(C)N1C[C@H](C)[C@@H](CN(C)C(=O)OC(C)(C)C)Oc2c(C(=O)Nc3ccncc3)cccc2C1=O`, in experiment [1], the IC50 is > 20 µM.

As for `C[C@@H]1CN([C@H](C)CO)C(=O)c2cccc(NC(=O)c3ccncc3)c2O[C@H]1CN(C)Cc1ccc2c(c1)OCO2`, the IC50 in experiment [1] is > 20 µM.

In the case of `CC(C)N1C[C@H](C)[C@@H](CN(C)Cc2ccccc2)Oc2c(NC(=O)c3ccncc3)cccc2C1=O`, the IC50 in experiment [1] was > 20 µM.

Consider `CC(C)N1C[C@H](C)[C@@H](CN(C)C(=O)OC(C)(C)C)Oc2c(C(=O)O)cccc2C1=O`, for which the IC50 in experiment [1] was > 20 µM.

In the case of `CC(C)N1C[C@H](C)[C@@H](CN(C)Cc2ccc(Oc3ccccc3)cc2)Oc2c(NC(=O)c3ccncc3)cccc2C1=O`, the IC50 in experiment [1] is > 20 µM.

For the compound `C[C@@H]1CN([C@@H](C)CO)C(=O)c2cccc(NC(=O)c3ccncc3)c2O[C@@H]1CN(C)Cc1ccc(Oc2ccccc2)cc1`, the IC50 in experiment [1] was > 20 µM.

Take `C[C@H]1CN([C@@H](C)CO)C(=O)c2cccc(NC(=O)c3ccncc3)c2O[C@@H]1CN(C)Cc1ccccc1`: in experiment [1], the IC50 is > 20 µM.

As to `C[C@H]1CN([C@@H](C)CO)C(=O)c2cccc(NC(=O)c3ccncc3)c2O[C@@H]1CN(C)Cc1ccc(C(=O)Nc2ccccc2N)cc1`, in experiment [1], the IC50 was > 20 µM.

With `Cc1cc(C(=O)Nc2cccc3c2O[C@@H](CN(C)Cc2ccc(Oc4ccccc4)cc2)[C@H](C)CN([C@@H](C)CO)C3=O)n(C)n1`, in experiment [1], the IC50 is > 20 µM.

For `C[C@@H]1CN([C@@H](C)CO)C(=O)c2cccc(NC(=O)c3ccncc3)c2O[C@H]1CN(C)Cc1ccc(Cl)cc1`, the IC50 in experiment [1] is > 20 µM.

In the case of `C[C@@H]1CN([C@@H](C)CO)C(=O)c2cc(Br)cnc2O[C@H]1CN(C)Cc1ccc2c(c1)OCO2`, the IC50 in experiment [1] is > 20 µM.

Take `C[C@@H]1CN([C@H](C)CO)C(=O)c2cccc(NC(=O)c3ccncc3)c2O[C@H]1CN(C)Cc1ccc(C(F)(F)F)cc1`: the IC50 in experiment [1] was > 20 µM. Further, in experiment [2], the IC90 was 0.472 µM and the IC99 was determined as 4.75 µM.

`CC(C)N(C)C(=O)c1cccc(NC(=O)c2ccncc2)c1OCCCN(C)Cc1ccc(Cl)cc1`: the IC50 in experiment [1] is > 20 µM.

Take `C[C@@H]1CN([C@@H](C)CO)C(=O)c2cccc(NC(=O)c3cnccn3)c2O[C@H]1CN(C)Cc1ccc(Oc2ccccc2)cc1`: in experiment [1], the IC50 was > 20 µM.

With `C[C@@H]1CN([C@@H](C)CO)C(=O)c2cccc(NC(=O)c3ccncc3)c2O[C@H]1CN(C)Cc1ccccc1Cl`, the IC50 in experiment [1] is > 20 µM.

Regarding `C[C@@H]1CN([C@@H](C)CO)C(=O)c2cc(-c3cncnc3)cnc2O[C@H]1CN(C)Cc1ccc(Oc2ccccc2)cc1`, in experiment [1], the IC50 is > 20 µM.

Regarding `CC(C)N1C[C@H](C)[C@@H](CN(C)C(=O)OC(C)(C)C)Oc2c(NC(=O)c3cccnc3)cccc2C1=O`, the IC50 in experiment [1] was > 20 µM.

With `C[C@@H]1CN([C@H](C)CO)C(=O)c2cccc(NC(=O)c3ccncc3)c2O[C@H]1CN(C)Cc1ccccc1`, in experiment [1], the IC50 was > 20 µM.

Consider `C[C@H]1CN([C@@H](C)CO)C(=O)c2cccc(NC(=O)c3ccncc3)c2O[C@@H]1CN(C)Cc1ccc(Cl)c(Cl)c1`, for which the IC50 in experiment [1] was > 20 µM.

Take `C[C@H]1CN([C@@H](C)CO)C(=O)c2cccc(NC(=O)c3ccncc3)c2O[C@@H]1CN(C)Cc1ccc(C(=O)O)cc1`: in experiment [1], the IC50 was > 20 µM.

For the compound `C[C@@H]1CN([C@@H](C)CO)C(=O)c2cccc(NC(=O)c3ccncc3)c2O[C@H]1CN(C)Cc1ccc2c(c1)OCO2`, in experiment [1], the IC50 is > 20 µM. Moreover, in experiment [2], the IC90 came out at 0.921 µM and the IC99 is 7.92 µM.

On to `C[C@@H]1CN([C@@H](C)CO)C(=O)c2cccc(NC(=O)c3ccncc3)c2O[C@H]1CN(C)Cc1ccc(Oc2ccccc2)cc1`, for which the IC50 in experiment [1] was > 20 µM. In addition, in experiment [2], the IC50 was 0.011 µM, the IC90 turned out to be 0.108 µM and the IC99 was 1.19 µM.

Consider `CC(C)N1C[C@H](C)[C@@H](CN(C)Cc2ccccc2Cl)Oc2c(NC(=O)c3ccncc3)cccc2C1=O`, for which, in experiment [1], the IC50 was > 20 µM.

Take `C[C@@H]1CN([C@@H](C)CO)C(=O)c2cccc(NC(=O)c3ccncc3)c2O[C@H]1CN(C)Cc1ccc(-c2ccccc2)cc1`: the IC50 in experiment [1] is > 20 µM.

Take `C[C@@H]1CN([C@@H](C)CO)C(=O)c2cccc(NC(=O)c3ccncc3)c2O[C@H]1CN(C)Cc1ccc(C(=O)O)cc1`: the IC50 in experiment [1] was > 20 µM.

With `C[C@H]1CN([C@@H](C)CO)C(=O)c2cccc(NC(=O)c3ccncc3)c2O[C@@H]1CN(C)Cc1ccc(Oc2ccccc2)cc1`, the IC50 in experiment [1] is > 20 µM.

Regarding `CC(C)N1C[C@H](C)[C@@H](CN(C)Cc2ccc(Cl)cc2)Oc2c(NC(=O)c3ccncc3)cccc2C1=O`, the IC50 in experiment [1] is > 20 µM.

As to `C[C@H]1CN([C@@H](C)CO)C(=O)c2cccc(NC(=O)c3ccncc3)c2O[C@@H]1CN(C)Cc1ccncc1`, the IC50 in experiment [1] was > 20 µM.

For the compound `CC(C)N1C[C@H](C)[C@@H](CN(C)Cc2cccc(Cl)c2)Oc2c(NC(=O)c3ccncc3)cccc2C1=O`, in experiment [1], the IC50 turned out to be 19.1 µM.
